Experimental findings from ChEMBL document CHEMBL3044857, “Benzimidazole: a medicinally important heterocyclic moiety” (Med Chem Res, 2012) are described below.

For assay [1], the system named is Aorta. The assay can be described thus: Vasorelaxant activity in Rattus norvegicus (rat) aortic rings. The assay is classed as functional, tissue-based.
The subject of assay [2] is Aorta. The assay is described as follows: Vasorelaxant activity in endothelium-denuded Rattus norvegicus (rat) aortic rings. The assay is classed as functional, tissue-based.
Assay [3] concerns MCF7. The assay can be described thus: Cytotoxicity against Homo sapiens (human) MCF7 cells by Alamar blue assay. The class given is functional, cell-based.
In assay [4] the test system is PC-3. The assay is described as follows: Cytotoxicity against Homo sapiens (human) PC3 cells by Alamar blue assay. The class given is functional, cell-based.
Assay [5] deals with HL-60. The assay can be described thus: Cytotoxicity against Homo sapiens (human) HL60 cells by Alamar blue assay. The class given is functional, cell-based.
For assay [6], the system named is HT-29. The assay can be described thus: Cytotoxicity against Homo sapiens (human) HT-29 cells by Alamar blue assay. The class given is functional, cell-based. Background: The colour change of resazurin is a common sign of viable cells or microbes.
Assay [7] relates to Candida. The assay is described as follows: Antimicrobial activity against Candida. The class given is functional.
The subject of assay [8] is Giardia intestinalis. The assay can be described thus: Antimicrobial activity against Giardia intestinalis. The class given is functional, organism-based. The note with it: Giardia duodenalis.
Assay [9] has as its system Trichomonas vaginalis. The assay can be described thus: Antimicrobial activity against Trichomonas vaginalis. The assay is classed as functional, organism-based.
For assay [10], the system named is Plasmodium falciparum. The assay can be described thus: Antimicrobial activity against Plasmodium falciparum. The class given is functional, organism-based.
Assay [11] addresses T1, Progesterone receptor (Homo sapiens, UniProt P06401).
T1 sequence (P06401 whole entry): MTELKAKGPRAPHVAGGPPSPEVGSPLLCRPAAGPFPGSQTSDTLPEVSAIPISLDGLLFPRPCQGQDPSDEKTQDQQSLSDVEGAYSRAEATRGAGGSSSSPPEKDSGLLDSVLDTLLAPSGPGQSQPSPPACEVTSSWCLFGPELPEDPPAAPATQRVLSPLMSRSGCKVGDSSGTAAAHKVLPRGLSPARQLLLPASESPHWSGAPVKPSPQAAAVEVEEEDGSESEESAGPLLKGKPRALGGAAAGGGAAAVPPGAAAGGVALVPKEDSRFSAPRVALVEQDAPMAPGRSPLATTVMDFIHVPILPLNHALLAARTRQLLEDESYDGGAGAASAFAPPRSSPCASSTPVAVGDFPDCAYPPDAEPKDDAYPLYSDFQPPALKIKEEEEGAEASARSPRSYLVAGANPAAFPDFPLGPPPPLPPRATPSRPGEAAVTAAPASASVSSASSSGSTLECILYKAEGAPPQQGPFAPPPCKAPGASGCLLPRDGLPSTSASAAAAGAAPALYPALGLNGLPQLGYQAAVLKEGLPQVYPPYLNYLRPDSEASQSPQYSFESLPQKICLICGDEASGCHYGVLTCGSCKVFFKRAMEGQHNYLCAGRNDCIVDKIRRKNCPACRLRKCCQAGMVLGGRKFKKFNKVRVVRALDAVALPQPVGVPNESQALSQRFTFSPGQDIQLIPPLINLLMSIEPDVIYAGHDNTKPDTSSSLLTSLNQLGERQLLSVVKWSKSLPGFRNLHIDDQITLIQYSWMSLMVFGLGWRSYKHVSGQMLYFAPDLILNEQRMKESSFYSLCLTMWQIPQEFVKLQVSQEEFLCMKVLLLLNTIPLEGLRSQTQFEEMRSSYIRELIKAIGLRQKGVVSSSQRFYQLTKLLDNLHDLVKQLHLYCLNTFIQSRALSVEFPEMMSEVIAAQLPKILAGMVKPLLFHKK
The assay is described as follows: Binding affinity to Homo sapiens (human) progesterone receptor.

In assay [12] the target is Casein kinase 2 (Rattus norvegicus, UniProt P19139). The assay can be described thus: Inhibition of Rattus norvegicus (rat) liver cytosolic CK2.
Casein kinase 2, sequence (P67874 whole entry): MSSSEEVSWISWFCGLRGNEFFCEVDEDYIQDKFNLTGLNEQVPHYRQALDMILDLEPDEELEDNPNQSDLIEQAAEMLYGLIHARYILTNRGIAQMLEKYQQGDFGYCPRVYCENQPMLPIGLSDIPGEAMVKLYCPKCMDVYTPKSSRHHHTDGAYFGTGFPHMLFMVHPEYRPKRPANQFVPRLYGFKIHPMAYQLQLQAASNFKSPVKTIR
Casein kinase 2, sequence (P19139 whole entry): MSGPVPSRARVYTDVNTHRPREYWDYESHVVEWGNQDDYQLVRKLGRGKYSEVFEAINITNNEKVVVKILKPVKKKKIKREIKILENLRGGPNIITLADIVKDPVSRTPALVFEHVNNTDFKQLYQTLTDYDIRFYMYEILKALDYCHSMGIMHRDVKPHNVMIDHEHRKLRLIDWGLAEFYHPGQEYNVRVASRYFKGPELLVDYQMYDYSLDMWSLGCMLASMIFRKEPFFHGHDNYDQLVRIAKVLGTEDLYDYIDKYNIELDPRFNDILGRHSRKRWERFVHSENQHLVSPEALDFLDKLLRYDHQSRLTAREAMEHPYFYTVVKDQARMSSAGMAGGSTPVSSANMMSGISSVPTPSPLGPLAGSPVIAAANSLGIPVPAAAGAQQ
A short description of assay [13]: Inhibition of GABA-A receptor benzodiazepine site (unknown origin). Also noted: species or system Homo sapiens.
Assay [14] concerns Respiratory syncytial virus. The assay is described as follows: Ratio of ribavirin EC50 to compound EC50 for Respiratory syncytial virus infected cell system assessed as inhibition of viral replication. The assay is classed as functional.
The subject of assay [15] is Respiratory syncytial virus. The assay is described as follows: Antiviral activity against Respiratory syncytial virus infected cell system assessed as inhibition of viral replication. The assay is classed as functional, organism-based. Particulars: human respiratory syncytial virus.

In brackets after ≈: the same amount, converted by molar mass.

Consider `COc1ccc(-c2nc3cc([N+](=O)[O-])ccc3[nH]2)cc1`, for which the IC50 in assay [1] came out at 1.41 µM; in assay [2], 3.61 µM.
For the compound `O=[N+]([O-])c1ccc2nc(-c3ccccc3O)[nH]c2c1`, the figures for the IC50 in [1] and in [2] were 0.95 µM and 2.01 µM, respectively.
Consider `O=C(O)c1cccc2[nH]c(-c3cccc4oc(-c5ccccc5O)nc34)nc12`, for which the IC50 in [3], in assay [4], in [5] and in assay [6] was 7 µM throughout.
The compound `CCCCn1c(-c2ccc(F)cc2)nc2cc(C#N)ccc21` showed an MIC in assay [7] of 3130 ng/mL (≈ 10.7 µM).
For the compound `Sc1nc2c(Br)cc(Br)cc2[nH]1`, the IC50 in [8] came to 6 ng/mL (≈ 0.0195 µM); in assay [9], 1.5 ng/mL (≈ 0.00487 µM).
`N=C(N)c1ccc(-c2ccc(O)c(-c3nc4ccc(C(=N)N)cc4[nH]3)c2)cc1` gave an IC50 in assay [10] of 0.0021 µM. This counts as single-digit nanomolar.
In assay [11], `Sc1nc2ccc(-n3ccnc3)cc2n1C1CCCC1` showed a Ki of 0.028 µM.
Consider `FC(F)(F)c1nc2c(Br)c(Br)c(Br)c(Br)c2[nH]1`, for which the affinity in assay [12] corresponds to a Ki of 0.6 µM.
`CCOCN1C2=C(C(=O)Nc3ccccc3F)C(=O)CCN2c2ccc(F)cc21` yielded an IC50 in [13] of 0.0001 µM.
As for `Cc1ccc(O)c(Cn2c(NC3CCN(CCN)CC3)nc3c(C)cccc32)n1` [JNJ 2408068], the “Ratio EC50” value in assay [14] is listed as 100000. Further, the EC50 in [15] worked out at 0.00016 µM.
For `NC(=O)c1ncn([C@@H]2O[C@H](CO)[C@@H](O)[C@H]2O)n1` [RIBAVIRIN], the EC50 in assay [15] is 15 µM.

One may read the IC50 as the concentration that inhibits the measured activity by half. Lower therefore signals greater potency. Usually MIC stands for the lowest concentration that inhibits growth of the organism. Read a high MIC as a less susceptible organism. For orientation: Ki means the dissociation constant of the complex between target and ligand, obtained from inhibition or displacement. Read a low Ki as a stronger hold on the target. By EC50 is commonly meant the midpoint of the concentration-response curve.
